Measured values taken from publication PMC8060220, “Comparative study of hyperpure chlorine dioxide with two other irrigants regarding the viability of periodontal ligament stem cells” (Clinical Oral Investigations, 2020).
Marks after values point to notes of the source that are not given here.

Experiments:
[1] = test system: CD105; assay: Immunocytochemistry of stem cell marker CD105; format: cell-based, human; conditions: 48 h
Protocol: (§1) PDLSC cultures grown in 8 chamber slides (Nunc Lab-Tek) were treated with the antiseptic agents similar to the viability studies. After 48 h, treated and untreated cell cultures were fixed in 4% PFA in PBS for 20 min at room temperature (RT). To block non-specific binding, 5% goat serum in PBS was applied for 1 h at RT. Then cell cultures were incubated with the primary antibodies diluted 1:100 with 2.5% goat serum in PBS overnight at 4 °C. The applied primary antibodies were the following: anti-STRO-1 antibody (type mouse IgM)—a generous gift from Prof. Richard Oreffo (University of Southampton, UK); anti-CD90 (Thy-1; type mouse IgG) and the anti-CD105 (endoglin; type mouse IgM) antibodies purchased from Calbiochem and Santa Cruz Biotechnology, respectively. Goat anti-mouse IgM and IgG type secondary antibodies conjugated with Alexa Fluor 488 (Molecular Probes) were diluted with 2.5% goat serum in PBS in 1:2000 and 1:1000 respectively. The incubation time was 60 min at RT. Finally, the walls of the chambers were removed and the slides were mounted with ProLong Gold antifade reagent with DAPI (Molecular Probes). Immunocytochemically labeled cell cultures were investigated under a fluorescence microscope (Nikon Eclipse E600), the photos were taken by a Retiga 2000R digital CCD camera (QImaging), and analyzed by the Image Pro software (Media Cybernetics). Free macros for automated fluorescence analysis of image processing software FIJI/ImageJ were applied to evaluate immunostaining of stem cell markers. Each test point represents 3 × 3 reading of the samples.

[2] = test system: STRO-1; assay: Immunocytochemistry of stem cell marker STRO-1; format: cell-based, human; conditions: 48 h
Protocol: as §1

[3] = test system: PDLSCs; assay: WST-1 viability assay, 10 min treatment; format: cell-based, human; conditions: P3 and P7, 48 h
Protocol: This assay is dedicated to measuring the viability of PDLSCs. In 96-well culture plates, 10,000 PDLSCs were seeded. After 24 h, samples were treated with the irrigative compounds, and final concentrations were H2O2 0.3%, CHX 0.02%, and ClO2 0.0025% and 0.00025% solutions in 4-4 parallel wells. After 10 min, all the irrigative agents were removed and the samples were washed three times with normal growth medium, simulating the diluting effect of saliva in the oral cavity during the periodontal treatments. Forty-eight hours after the treatments, the cell viability was measured by the cell proliferation reagent containing water-soluble tetrazolium salt, WST-1 [2-(4-Iodophenyl)-3-(4-nitrophenyl)-5-(2,4-disulfophenyl)-2H-tetrazolium] (Roche). This assay determines mitochondrial dehydrogenase enzyme activity resulting water-soluble cleavage product. The WST-1 reagent was used at 1:20 dilution and incubation time was 2 h at 37 °C. Absorbance was measured at 450 nm with a reference wavelength of 655 nm by a microplate reader (BIO-RAD Model 3550). Background control values were determined in wells seeded with no cells. Each value represents the average of minimum 3 parallel measurements.

[4] = test system: PDLSCs; assay: Impedimetry (xCELLigence), 10 min treatment, time course and viability; format: cell-based, human; conditions: for normalized Cell Index (CI) two days after the treatment: 37 °C; for viability of PDLSC cultures, impedimetry: 48 h
Protocol: The effect of irrigative agents on the viability of the PDLSC cells was assessed using the xCELLigence SP System (Roche Applied Science, Indianapolis, IN, USA), which monitors the cellular events by measuring electrical impedance across interdigitating gold microelectrodes integrated on the bottom of tissue culture plates (E-plates). The detected impedance is influenced by the viability and morphology of the attached cells on the surface of the electrodes. The presence of cells due to their insulating plasma membranes constrain the electrical current and lead to an increase in the electrode impedance. The impedance depends on the number of the attached cells and on the dimensional change of the attached cells on the electrodes. More cells attached to the electrode or spreading cause a larger increase in the impedance. The change in impedances represented as “cell index” (CI) which is a relative and dimensionless value. Briefly, the experimental protocol was as follows: to register the background value, 100 μL of culture medium was added to each well and impedance was recorded for 1 h to gain constant background curves of impedance. In the following step, PDLSCs were seeded in 10^5 cells/mL density. After 24-h incubation, they were treated with the solutions of the investigated irrigative compounds (H2O2, CHX, and ClO2) for 10 min and the medium served as reference. […] Normalized impedance to the control calculated by the integrated software (RTCA 1.2—Roche Applied Science, Indianapolis, IN, USA) was used for the statistical evaluation. Each data point represents the mathematical average of three parallels.

[5] = test system: equine fibroblasts; conditions: equine fibroblasts; cited from earlier work
[6] = test system: PDLSC cultures; assay: Morphological study, phase-contrast microscopy; format: cell-based, human; conditions: 48 h after treatment; 0.3% H2O2, 0.02% CHX, 0.0025% or 0.00025% ClO2
Text: Cellular morphology was observed under an inverted phase-contrast microscope (Nikon TMS). Photomicrographs were taken applying a high-performance CCD camera (COHU) and the Scion image software.

[7] = P3, 0.02% CHX, 0.0025% (1/1) ClO2
[8] = P7, 0.02% CHX, 0.0025% (1/1) ClO2
[9] = 0.3% H2O2, 0.02% CHX, 0.0025% and 0.00025% ClO2, 10 min treatment

What does the source list for `[O][Cl+][O-]` [ClO2, chlorine dioxide]?
CD105 Fluo. int. [%] Control = 100% ([1]; P3, 0.00025% (1/10) ClO2): 127.80* %; CD105 Fluo. int. [%] Control = 100% [1, 7]: 213.90*** %; CD105 Fluo. int. [%] Control = 100% ([1]; P7, 0.00025% (1/10) ClO2): 15.74*** %; CD105 Fluo. int. [%] Control = 100% [1, 8]: 55.46*** %; STRO-1 Fluo. int. [%] Control = 100% ([2]; P3, 0.00025% (1/10) ClO2): 145.78** %; STRO-1 Fluo. int. [%] Control = 100% [2, 7]: 216.52*** %; STRO-1 Fluo. int. [%] Control = 100% ([2]; P7, 0.00025% (1/10) ClO2): 114.69%; STRO-1 Fluo. int. [%] Control = 100% [2, 8]: 120.43* %; viability of PDLSC cultures, WST-1 ([3]; 0.3% H2O2, 0.02% CHX, higher ClO2 concentration (0.0025%)): no effect; viability of PDLSC cultures, WST-1 ([3]; lower ClO2 concentration (0.00025%)): unequivocally neutral; long-term (2–120 h) effect on normalized CI [4, 9]: consistent increase of the curves; short-term (0–2 h) effect on normalized CI [4, 9]: significantly less toxic compared to the other two antiseptic substances; repopulation in long-term impedimetric analysis ([4]; 5-day-long period after treatment): proliferation of the remaining cell population can compensate cell loss; normalized Cell Index (CI) two days after the treatment ([4]; 10 minute treatment in 2.5 mg/l ClO2 solution): ≈ 0.8; normalized Cell Index (CI) two days after the treatment ([4]; 10 minute treatment in 25 mg/l ClO2 solution): about 0.5; viability of PDLSC cultures, impedimetry ([4]; P3, higher ClO2 concentration (0.0025%)): significant inhibitory effect; viability of PDLSC cultures, impedimetry ([4]; P3 and P7, lower ClO2 concentration (0.00025%)): unequivocally neutral; cells killed during the first 30 min ([4]; impedimetric results, 0.02% CHX, ClO2 depending on the concentration applied (0.0025%, 0.00025%)): 20–30%; toxicity compared with CHX [5]: less toxic to equine fibroblasts than CHX; cell morphology and cell number under phase-contrast microscope [6]: did not provoke morphological changes
